From US20250230193A1, “CYCLIC COMPOUND HAVING SELECTIVE KRAS INHIBITORY EFFECT ON HRAS AND NRAS” (CHUGAI SEIYAKU KABUSHIKI KAISHA, priority 2022, published 2025)

Assays:
[1] = target: GDP-bound HRAS wild-type protein (Homo sapiens, UniProt P01112); test: Binding to HRAS by surface plasmon resonance (SPR), Single Cycle Kinetics; details: KD ratio, GDP-bound HRAS wild-type vs GDP-bound KRAS wild-type, SPR
[2] = target: GDP-bound NRAS wild-type protein (Homo sapiens, UniProt P01111); test: Binding to NRAS by surface plasmon resonance (SPR), Single Cycle Kinetics; details: KD ratio, GDP-bound NRAS wild-type vs GDP-bound KRAS wild-type, SPR
GDP-bound NRAS wild-type protein, sequence (P01111 whole entry): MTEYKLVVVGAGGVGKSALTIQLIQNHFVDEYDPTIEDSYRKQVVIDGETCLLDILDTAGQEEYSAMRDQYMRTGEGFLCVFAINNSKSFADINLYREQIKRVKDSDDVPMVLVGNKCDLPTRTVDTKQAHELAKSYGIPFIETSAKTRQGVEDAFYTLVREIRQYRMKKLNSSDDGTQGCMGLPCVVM

GDP-bound HRAS wild-type protein, sequence (P01112 whole entry): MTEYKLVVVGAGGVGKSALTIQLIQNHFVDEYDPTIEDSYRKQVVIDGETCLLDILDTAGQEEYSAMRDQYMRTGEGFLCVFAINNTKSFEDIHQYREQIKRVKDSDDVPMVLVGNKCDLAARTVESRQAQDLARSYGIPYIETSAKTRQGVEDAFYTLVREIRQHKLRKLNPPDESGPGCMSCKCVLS

SMILES | HRAS/KRAS (ratio of KD value for HRAS to KD value for KRAS) [1] | NRAS/KRAS (ratio of KD value for NRAS to KD value for KRAS) [2]
CCCN(C)C(=O)[C@@H]1CC(=O)N(C)[C@@H](C2CCC2)C(=O)N[C@@H]([C@@H](C)CC)C(=O)N(C)CC(=O)N(C)[C@H]2C/C=C\CCN(C2=O)[C@@H](Cc2ccc(C(F)(F)F)cc2)C(=O)N(C)CC(=O)N[C@@H](CCc2cc(F)c(C(F)(F)F)c(F)c2)C(=O)N2C[C@H](OCC)C[C@H]2C(=O)NC2(CCC2)C(=O)N(C)[C@@H](C2CCCC2)C(=O)N1C [PP1998] | B (a compound having 3 or more and less than 10 is denoted as B) | A (a compound having 10 or more and less than 20 is denoted as A)
CC[C@H](C)[C@@H]1NC(=O)[C@H](CCOC)N(C)C(=O)C[C@@H](C(=O)N(C)CC)N(C)C(=O)[C@H](C2CCCC2)N(C)C(=O)C2(CC(C)(C)C2)NC(=O)[C@@H]2C[C@H](C)CN2C(=O)[C@H](CCc2ccc(C(F)(F)F)c(OC)c2)NC(=O)CN(C)C(=O)[C@H](Cc2ccc(C(F)(F)F)cc2)N2CC/C=C\C[C@@H](C2=O)N(C)C(=O)CN(C)C1=O [PP1999] | B (a compound having 3 or more and less than 10 is denoted as B) | A (a compound having 10 or more and less than 20 is denoted as A)
CCCN(C)C(=O)[C@@H]1CC(=O)N(C)[C@@H](CC(F)F)C(=O)N[C@@H]([C@@H](C)CC)C(=O)N(C)CC(=O)N(C)[C@H]2C/C=C\CCN(C2=O)[C@@H](Cc2ccc(C(F)(F)F)cc2)C(=O)N(C)CC(=O)N[C@@H](CCc2cc(F)c(C(F)(F)F)c(F)c2)C(=O)N2C[C@@H](C)C[C@H]2C(=O)NC2(CCC2)C(=O)N(C)[C@@H](C2CCCC2)C(=O)N1C [PP2000] | B (a compound having 3 or more and less than 10 is denoted as B) | A (a compound having 10 or more and less than 20 is denoted as A)
CCCN(C)C(=O)[C@@H]1CC(=O)N(C)[C@@H](CCOC)C(=O)N[C@@H]([C@@H](C)CC)C(=O)N(C)CC(=O)N(C)[C@H]2C/C=C\CCN(C2=O)[C@@H](Cc2ccc(C(F)(F)F)cc2)C(=O)N(C)CC(=O)N[C@@H](CCc2ccc(C(F)(F)F)c(OC)c2)C(=O)N2C[C@@H](C)C[C@H]2C(=O)NC2(CC(C)(C)C2)C(=O)N(C)[C@@H](C2CCCC2)C(=O)N1C [PP2001] | A (a compound having 10 or more and less than 20 is denoted as A) | A (a compound having 10 or more and less than 20 is denoted as A)
CC[C@H](C)[C@@H]1NC(=O)[C@H](C(C)C)N(C)C(=O)C[C@@H](C(=O)N(C)CC)N(C)C(=O)[C@H](C2CCCC2)N(C)C(=O)C2(CC(C)(C)C2)NC(=O)[C@@H]2C[C@H](C)CN2C(=O)[C@H](CCc2ccc(C(F)(F)F)c(OC)c2)NC(=O)CN(C)C(=O)[C@H](Cc2ccc(C(F)(F)F)cc2)N2CC/C=C\C[C@@H](C2=O)N(C)C(=O)CN(C)C1=O [PP2003] | B (a compound having 3 or more and less than 10 is denoted as B) | A (a compound having 10 or more and less than 20 is denoted as A)
CC[C@H](C)[C@@H]1NC(=O)[C@H](C(C)C)N(C)C(=O)C[C@@H](C(=O)N(C)C)N(C)C(=O)[C@H](C2CCCC2)N(C)C(=O)C2(CC(C)(C)C2)NC(=O)[C@@H]2C[C@H](C)CN2C(=O)[C@H](CCc2ccc(C(F)(F)F)c(OC)c2)NC(=O)CN(C)C(=O)[C@H](Cc2ccc(C(F)(F)F)cc2)N2CC/C=C\C[C@@H](C2=O)N(C)C(=O)CN(C)C1=O [PP2005] | A (a compound having 10 or more and less than 20 is denoted as A) | A (a compound having 10 or more and less than 20 is denoted as A)
CC[C@H](C)[C@@H]1NC(=O)[C@H](C2CC2)N(C)C(=O)C[C@@H](C(=O)N(C)CC)N(C)C(=O)[C@H](C2CCCC2)N(C)C(=O)C2(CC(C)(C)C2)NC(=O)[C@@H]2C[C@H](C)CN2C(=O)[C@H](CCc2ccc(C(F)(F)F)c(OC)c2)NC(=O)CN(C)C(=O)[C@H](Cc2ccc(C(F)(F)F)cc2)N2CC/C=C\C[C@@H](C2=O)N(C)C(=O)CN(C)C1=O [PP2007] | B (a compound having 3 or more and less than 10 is denoted as B) | AA (a compound having 20 or more is denoted as AA)
CCCOC[C@H]1C(=O)N[C@@H]([C@@H](C)CC)C(=O)N(C)CC(=O)N(C)[C@H]2C/C=C\CCN(C2=O)[C@@H](Cc2ccc(C(F)(F)F)cc2)C(=O)N(C)CC(=O)N[C@@H](CCc2cc(F)c(C(F)(F)F)c(F)c2)C(=O)N2C[C@@H](C)C[C@H]2C(=O)NC2(CCC2)C(=O)N(C)[C@@H](C2CCCC2)C(=O)N(C)[C@H](C(=O)N(C)CCC)CC(=O)N1C [PP2008] | A (a compound having 10 or more and less than 20 is denoted as A) | A (a compound having 10 or more and less than 20 is denoted as A)
CC[C@H](C)[C@@H]1NC(=O)[C@H](C2CCC2)N(C)C(=O)C[C@@H](C(=O)N(C)CC)N(C)C(=O)[C@H](C2CCCC2)N(C)C(=O)C2(CC(C)(C)C2)NC(=O)[C@@H]2C[C@H](C)CN2C(=O)[C@H](CCc2ccc(C(F)(F)F)c(OC)c2)NC(=O)CN(C)C(=O)[C@H](Cc2ccc(C(F)(F)F)cc2)N2CC/C=C\C[C@@H](C2=O)N(C)C(=O)CN(C)C1=O [PP2009] | A (a compound having 10 or more and less than 20 is denoted as A) | A (a compound having 10 or more and less than 20 is denoted as A)
CCCN(C)C(=O)[C@@H]1CC(=O)N(C)[C@@H](CC(F)F)C(=O)N[C@@H]([C@@H](C)CC)C(=O)N(C)CC(=O)N(C)[C@H]2C/C=C\CCN(C2=O)[C@@H](Cc2ccc(C(F)(F)F)cc2)C(=O)N(C)CC(=O)N[C@@H](CCc2ccc(C(F)(F)F)c(OC)c2)C(=O)N2C[C@H](OCC)C[C@H]2C(=O)NC2(CC(C)(C)C2)C(=O)N(C)[C@@H](C2CCCC2)C(=O)N1C [PP2010] | B (a compound having 3 or more and less than 10 is denoted as B) | A (a compound having 10 or more and less than 20 is denoted as A)
CC[C@H](C)[C@@H]1NC(=O)[C@H](C2CCC2)N(C)C(=O)C[C@@H](C(=O)N(C)C)N(C)C(=O)[C@H](C2CCCC2)N(C)C(=O)C2(CC(C)(C)C2)NC(=O)[C@@H]2C[C@H](C)CN2C(=O)[C@H](CCc2ccc(C(F)(F)F)c(OC)c2)NC(=O)CN(C)C(=O)[C@H](Cc2ccc(C(F)(F)F)cc2)N2CC/C=C\C[C@@H](C2=O)N(C)C(=O)CN(C)C1=O [PP2011] | A (a compound having 10 or more and less than 20 is denoted as A) | A (a compound having 10 or more and less than 20 is denoted as A)
CCCN(C)C(=O)[C@@H]1CC(=O)N(C)[C@@H](COCC)C(=O)N[C@@H]([C@@H](C)CC)C(=O)N(C)CC(=O)N(C)[C@H]2C/C=C\CCN(C2=O)[C@@H](Cc2ccc(C(F)(F)F)cc2)C(=O)N(C)CC(=O)N[C@@H](CCc2ccc(C(F)(F)F)c(OC)c2)C(=O)N2C[C@H](OCC)C[C@H]2C(=O)NC2(CC(C)(C)C2)C(=O)N(C)[C@@H](C2CCCC2)C(=O)N1C [PP2012] | A (a compound having 10 or more and less than 20 is denoted as A) | AA (a compound having 20 or more is denoted as AA)
CCCN(C)C(=O)[C@@H]1CC(=O)N(C)[C@@H](CC(F)F)C(=O)N[C@@H]([C@@H](C)CC)C(=O)N(C)CC(=O)N(C)[C@H]2C/C=C\CCN(C2=O)[C@@H](Cc2ccc(C(F)(F)F)cc2)C(=O)N(C)CC(=O)N[C@@H](CCc2ccc(C(F)(F)F)c(OC)c2)C(=O)N2C[C@H](OCC)C[C@H]2C(=O)NC2(CCC2)C(=O)N(C)[C@@H](C2CCCC2)C(=O)N1C [PP2013] | B (a compound having 3 or more and less than 10 is denoted as B) | A (a compound having 10 or more and less than 20 is denoted as A)
CCOC[C@H]1C(=O)N[C@@H]([C@@H](C)CC)C(=O)N(C)CC(=O)N(C)[C@H]2C/C=C\CCN(C2=O)[C@@H](Cc2ccc(C(F)(F)F)cc2)C(=O)N(C)CC(=O)N[C@@H](CCc2ccc(C(F)(F)F)c(OC)c2)C(=O)N2C[C@H](OCC)C[C@H]2C(=O)NC2(CC(C)(C)C2)C(=O)N(C)[C@@H](C2CCCC2)C(=O)N(C)[C@H](C(=O)N(C)CC)CC(=O)N1C [PP2014] | A (a compound having 10 or more and less than 20 is denoted as A) | A (a compound having 10 or more and less than 20 is denoted as A)
CCCN(C)C(=O)[C@@H]1CC(=O)N(C)[C@@H](COCC)C(=O)N[C@@H]([C@@H](C)CC)C(=O)N(C)CC(=O)N(C)[C@H]2C/C=C\CCN(C2=O)[C@@H](Cc2ccc(C(F)(F)F)cc2)C(=O)N(C)CC(=O)N[C@@H](CCc2ccc(C(F)(F)F)c(OC)c2)C(=O)N2C[C@H](OCC)C[C@H]2C(=O)NC2(CCC2)C(=O)N(C)[C@@H](C2CCCC2)C(=O)N1C [PP2015] | B (a compound having 3 or more and less than 10 is denoted as B) | A (a compound having 10 or more and less than 20 is denoted as A)
CCCOC[C@H]1C(=O)N[C@@H]([C@@H](C)CC)C(=O)N(C)CC(=O)N(C)[C@H]2C/C=C\CCN(C2=O)[C@@H](Cc2ccc(C(F)(F)F)cc2)C(=O)N(C)CC(=O)N[C@@H](CCc2ccc(C(F)(F)F)c(OC)c2)C(=O)N2C[C@H](OCC)C[C@H]2C(=O)NC2(CCC2)C(=O)N(C)[C@@H](C2CCCC2)C(=O)N(C)[C@H](C(=O)N(C)CC)CC(=O)N1C [PP2016] | A (a compound having 10 or more and less than 20 is denoted as A) | A (a compound having 10 or more and less than 20 is denoted as A)
